Tests used:
mu opiate receptor (MOR) = target: T1, mu opiate receptor (MOR) (Rattus norvegicus, UniProt P33535); assay: [35S]GTPγS binding assay using striatal membranes (MOR agonist activity); format: biochemical; set-up: MOR agonist activity, [35S]GTPγS binding to Gαo, 0.1 μM / MOR agonist activity, [35S]GTPγS binding to Gαo, 1 μM / MOR agonist activity, [35S]GTPγS binding to Gαo, 1 μM + BFNA: reference not given here; conditions: for MOR agonist activity, [35S]GTPγS binding to Gαo, 0.1 μM: 0.1 μM compound; for MOR agonist activity, [35S]GTPγS binding to Gαo, 0.1 μM / MOR agonist activity, [35S]GTPγS binding to Gαo, 1 μM: striatal membranes; for MOR agonist activity, [35S]GTPγS binding to Gαo, 1 μM + BFNA: 1 μM compound + 1 μM β-funaltrexamine; for MOR agonist activity, [35S]GTPγS binding to Gαo, 1 μM: 1 μM compound
T1 construct: from tissue; host or cells: striatal tissue (membrane preparation)
T1 sequence (P33535 whole entry): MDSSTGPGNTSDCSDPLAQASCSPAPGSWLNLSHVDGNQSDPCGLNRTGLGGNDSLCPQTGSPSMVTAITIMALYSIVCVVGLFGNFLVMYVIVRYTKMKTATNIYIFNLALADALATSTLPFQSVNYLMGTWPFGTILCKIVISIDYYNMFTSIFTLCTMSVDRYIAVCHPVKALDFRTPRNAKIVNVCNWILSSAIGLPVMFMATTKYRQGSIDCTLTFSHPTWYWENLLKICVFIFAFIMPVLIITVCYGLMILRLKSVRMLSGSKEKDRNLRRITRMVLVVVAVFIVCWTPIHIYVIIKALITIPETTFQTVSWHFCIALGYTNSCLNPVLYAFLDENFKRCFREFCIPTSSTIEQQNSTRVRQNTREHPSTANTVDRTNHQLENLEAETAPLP
Experimental: To assess the mu opiate receptor (MOR) agonist activity of positive compounds from the FLNA screening, compounds were tested in a [^35S]GTPγS binding assay using striatal membranes. Our previous study has shown that in striatal membranes, activation of MOR leads to an increase in [^35S]GTPγS binding to Gαo (Wang et al., 2005 Neuroscience 135:247-261).
Striatal tissue was homogenized in 10 volumes of ice cold 25 mM HEPES buffer, pH 7.4, which contained 1 mM EGTA, 100 mM sucrose, 50 μg/ml leupeptin, 0.04 mM PMSF, 2 μg/ml soybean trypsin inhibitor and 0.2% 2-mercaptoethanol. The homogenates were centrifuged at 800×g for 5 minutes and the supernatants were centrifuged at 49,000×g for 20 minutes. The resulting pellets were suspended in 10 volume of reaction buffer, which contained 25 mM HEPES, pH 7.5, 100 mM NaCl, 50 μg/ml leupeptin, 2 μg/ml soybean trypsin inhibitor, 0.04 mM PMSF and 0.02% […].
The resultant striatal membrane preparation (200 μg) was admixed and maintained (incubated) at 30° C. for 5 minutes in reaction buffer as above that additionally contained 1 mM MgCl2 and 0.5 nM [^35S]GTPγS (0.1 μCi/assay, PerkinElmer Life and Analytical Sciences) in a total volume of 250 μl and continued for 5 minutes in the absence or presence of 0.1-10 μM of an assayed compound of interest. The reaction was terminated by dilution with 750 μl of ice-cold reaction buffer that contained 20 mM MgCl2 and 1 mM EGTA and immediate centrifugation at 16,000×g for 5 minutes.
The resulting pellet was solubilized by sonicating for 10 seconds in 0.5 ml of immunoprecipitation buffer containing 0.5% digitonin, 0.2% sodium cholate and 0.5% NP-40. Normal rabbit serum (1 μl) was added to 1 ml of lysate and incubated at 25° C. for 30 minutes. Nonspecific immune complexes were removed by incubation with 25 μl of protein A/G-conjugated agarose beads at 25° C. for 30 minutes followed by centrifugation at 5,000×g at 4° C. for 5 minutes. The supernatant was divided and separately incubated at 25° C. for 30 minutes with antibodies raised against Gαo proteins (1:1,000 dilutions).
The immunocomplexes so formed were collected by incubation at 25° C. for 30 minutes with 40 μl of agarose-conjugated protein A/G beads and centrifugation at 5,000×g at 4° C. for 5 minutes. The pellet was washed and suspended in buffer containing 50 mM Tris-HCl, pH 8.0, and 1% NP-40. The radioactivity in the suspension was determined by liquid scintillation spectrometry. […] DAMGO (H-Tyr-D-Ala-Gly-N-MePhe-Gly-OH; 1 or 10 μM) was used as a positive control.

[1] = target: Bn-VAKGL pentapeptide of filamin A (FLNA) (Homo sapiens, UniProt P21333); assay: FITC-NLX-based FLNA screening assay (FLNA peptide binding assay); conditions: for Percent inhibition of FITC-NLX binding, 0.01 μM: 0.01 μM compound; for Percent inhibition of FITC-NLX binding, 0.01 μM / Percent inhibition of FITC-NLX binding, 0.1 μM / Percent inhibition of FITC-NLX binding, 1 μM: 10 nM FITC-NLX; for Percent inhibition of FITC-NLX binding, 0.1 μM: 0.1 μM compound; for Percent inhibition of FITC-NLX binding, 1 μM: 1 μM compound
Experimental: The final assay volume is 100 μl.
Compounds are tested in triplicate or quadruplicate.

Structure (SMILES) | MOR agonist activity, [35S]GTPγS binding to Gαo, 0.1 μM (mu opiate receptor (MOR)) [%] | MOR agonist activity, [35S]GTPγS binding to Gαo, 1 μM + BFNA (mu opiate receptor (MOR)) [%] | MOR agonist activity, [35S]GTPγS binding to Gαo, 1 μM (mu opiate receptor (MOR)) [%] | Percent inhibition of FITC-NLX binding, 0.01 μM [1] [%] | Percent inhibition of FITC-NLX binding, 0.1 μM [1] [%] | Percent inhibition of FITC-NLX binding, 1 μM [1] [%] | inhibition at 0.01 µM ([1]; read-out: Percent inhibition of FITC-NLX binding, 0.01 μM) [%] | inhibition at 0.1 µM ([1]; read-out: Percent inhibition of FITC-NLX binding, 0.1 μM) [%] | inhibition at 1 µM ([1]; read-out: Percent inhibition of FITC-NLX binding, 1 μM) [%]
COc1cccc(OC)c1C(=O)CC1c2c(cc3c(c2OC)OCO3)CC[N+]1(C)C.[I-] (stereo not drawn) [B0023] | 166.1 | 28.4 | 245.3 | 28.5 | 37.8 | 46.4 | – | – | –
COc1c2c(cc3c1C(CC(=O)c1ccc(F)c(F)c1)[N+](C)(C)CC3)OCO2 (stereo not drawn) [B0003] | 103.0 | 18.6 | 131.1 | – | – | – | 45.4 | 52.9 | 63.5
COc1c2c(cc3c1C(CC(=O)c1ccc(O)c(C)c1)[N+](C)(C)CC3)OCO2 (stereo not drawn) [B0002] | 165.7 | 101.4 | 219.0 | 40.2 | 46.4 | 55.0 | – | – | –
COc1c2c(cc3c1C(CC(=O)CCc1ccc(O)cc1)[N+](C)(C)CC3)OCO2.[I-] (stereo not drawn) [B0028] | 199.1 | 55.0 | 357.7 | 38.2 | 42.8 | 49.1 | – | – | –
COc1cc(C(=O)CC2c3c(cc4c(c3OC)OCO4)CC[N+]2(C)C)cc(OC)c1OC (stereo not drawn) [B0037] | 119.8 | 106.2 | 186.0 | 47.4 | 53.0 | 52.4 | – | – | –
COc1ccc(C(=O)CC2c3c(cc4c(c3OC)OCO4)CC[N+]2(C)C)c(F)c1.[I-] (stereo not drawn) [B0027] | 140.9 | 21.6 | 266.9 | 40.2 | 46.7 | 49.8 | – | – | –
COc1ccccc1CCC(=O)CC1c2c(cc3c(c2OC)OCO3)CC[N+]1(C)C (stereo not drawn) [B0045] | 129.3 | 83.8 | 193.1 | 63.2 | 68.2 | 73.9 | – | – | –
COCOc1ccc(C(=O)CC2c3c(cc4c(c3OC)OCO4)CC[N+]2(C)C)cc1C.[I-] (stereo not drawn) [B0041] | 61.6 | 41.9 | 109.3 | 44.0 | 46.8 | 52.8 | – | – | –
COc1ccccc1CC(O)CC1c2c(cc3c(c2OC)OCO3)CCN1C (stereo not drawn) [B0030] | 107.2 | 90.1 | 276.1 | 47.0 | 50.5 | 57.6 | – | – | –
COc1c2c(cc3c1C(CC(=O)/C=C/c1ccc(Cl)cc1)[N+](C)(C)CC3)OCO2 (stereo not drawn) [B0019] | 101.0 | 81.4 | 256.5 | 34.3 | 41.0 | 49.0 | – | – | –
COc1ccc(C(=O)CC2c3c(cc4c(c3OC)OCO4)CC[N+]2(C)C)cc1C.[I-] (stereo not drawn) [B0021] | 126.9 | 42.9 | 256.4 | 32.5 | 43.1 | 47.6 | – | – | –
COc1c2c(cc3c1C(CC(=O)CCc1ccc(F)cc1)[N+](C)(C)CC3)OCO2 (stereo not drawn) [B0018] | 118.8 | 45.6 | 143.0 | 37.2 | 43.7 | 47.6 | – | – | –
COc1ccc(CCC(O)CC2c3c(cc4c(c3OC)OCO4)CC[N+]2(C)C)cc1 (stereo not drawn) [B0049] | 181.6 | 133.2 | 364.0 | 32.2 | 40.1 | 47.1 | – | – | –
COc1ccc(OC)c(CCC(=O)CC2c3c(cc4c(c3OC)OCO4)CC[N+]2(C)C)c1 (stereo not drawn) [B0044] | 87.3 | 134.6 | 170.0 | 35.2 | 39.5 | 44.4 | – | – | –
COc1cc(CC(=O)CC2c3c(cc4c(c3OC)OCO4)CC[N+]2(C)C)cc(OC)c1OC (stereo not drawn) [B0008] | 148.3 | 46.0 | 264.1 | 35.5 | 40.3 | 52.8 | – | – | –
COc1c2c(cc3c1C(CC(O)CCc1ccccc1)[N+](C)(C)CC3)OCO2 (stereo not drawn) [B0052] | 98.2 | 40.9 | 151.7 | 30.2 | 39.1 | 44.3 | – | – | –
COc1c2c(cc3c1C(CC(=O)c1ccncc1)[N+](C)(C)CC3)OCO2 (stereo not drawn) [B0005] | 89.2 | 45.1 | 110.4 | 31.8 | 34.8 | 41.7 | – | – | –
COc1ccc(CCC(=O)CC2c3c(cc4c(c3OC)OCO4)CC[N+]2(C)C)c(OC)c1 (stereo not drawn) [B0043] | 74.8 | 166.4 | 248.1 | 30.8 | 39.2 | 46.8 | – | – | –
COc1ccc(CCC(O)CC2c3c(cc4c(c3OC)OCO4)CCN2C)cc1 (stereo not drawn) [B0048] | 185.1 | 78.5 | 223.4 | 34.7 | 41.9 | 43.9 | – | – | –
COc1c2c(cc3c1C(CC(=O)Cc1ccc(Br)cc1)[N+](C)(C)CC3)OCO2 (stereo not drawn) [B0011] | 158.6 | 78.0 | 212.6 | 40.9 | 50.3 | 55.8 | – | – | –

From US20100280061A1, “NOVEL ANALGESIC THAT BINDS FILAMIN A” (priority 2009, published 2010)
